From ChEMBL document CHEMBL5500371, “Arginine and tryptophan-rich dendritic antimicrobial peptides that disrupt membranes for bacterial infection in vivo” (Eur J Med Chem, 2024)
Values after ≈ are worked out from the molar mass of the structure shown. Active and inactive are the calls of the source. The calls are words filed in the database; no cut-off is given here. Where a SMILES comes first, the peptide text is derived from it. Side-chain parts run from the residue outwards.

Tests used:
[1] = system: Acinetobacter baumannii; test: Antibacterial activity against Acinetobacter baumannii ATCC 19606 assessed as inhibition of bacterial growth incubated for 20 hrs by broth microdilution method; format: functional
[2] = system: Staphylococcus aureus; test: Antibacterial activity against Staphylococcus aureus ATCC 25923 assessed as inhibition of bacterial growth preincubated with 10% mouse serum for 1 hr and measured after 20 hrs by broth microdilution method; format: functional
[3] = system: Escherichia coli; test: Drug resistance, ratio of MIC for Escherichia coli after 20 passages to MIC for Escherichia coli after initial exposure; format: functional
[4] = system: Cell membrane; test: Induction of cell membrane damage in Escherichia coli assessed as increase in PI uptake at 2 times MIC measured after 2 hrs by PI dye based flow cytometry analysis; format: cell membranes
[5] = system: Escherichia coli; test: Antibacterial activity against Escherichia coli ATCC 25922 assessed as inhibition of bacterial growth preincubated with 10% mouse serum for 6 hrs and measured after 20 hrs by broth microdilution method; format: functional
[6] = system: Escherichia coli; test: […] activity against Escherichia coli ATCC 25922 infected in male BALB/c pulmonary infection model assessed as reduction in liver hemorrhage at 5 to 10 mg/kg, ip administered at 3 and 12 hrs post infection and measured 24 hrs post infection by H and E staining based analysis; format: functional, organism-based; details: dose 5-10 mg/kg, time 12-21 hrs
[7] = system: Escherichia coli; test: Synergistic antibacterial activity against Escherichia coli ATCC 25922 assessed as fractional inhibitory concentration index at 0.25 to 4 times MIC incubated for 20 hrs in presence of kanamycin by checkerboard assay; format: functional
[8] = system: Staphylococcus aureus; test: Antibacterial activity against Staphylococcus aureus ATCC 25923 assessed as inhibition of bacterial growth by measuring fold increase in MIC incubated for 20 hrs in presence of FeCl3 by broth microdilution method relative to control; format: functional
[9] = system: Staphylococcus aureus; test: Antibacterial activity against Staphylococcus aureus ATCC 25923 assessed as inhibition of bacterial growth by measuring fold increase in MIC incubated for 20 hrs in presence of MgCl2 by broth microdilution method relative to control; format: functional
[10] = system: Klebsiella pneumoniae; test: Antibacterial activity against Klebsiella pneumoniae ATCC 700603 assessed as inhibition of bacterial growth incubated for 20 hrs by broth microdilution method; format: functional
[11] = system: Staphylococcus aureus; test: Antibacterial activity against Staphylococcus aureus ATCC 25923 assessed as inhibition of bacterial growth by measuring fold increase in MIC incubated for 20 hrs in presence of ZnCl2 by broth microdilution method relative to control; format: functional
[12] = system: Erythrocyte; test: Hemolytic activity in mouse erythrocytes assessed as 10% hemolysis incubated for 1 hr by absorbance based analysis; format: toxicity, cell-based
[13] = system: Cell membrane; test: Disruption of cell membrane morphology in Escherichia coli assessed as release of cellular contents at 2 times MIC measured after 0.5 to 2 hrs by SEM analysis; format: cell membranes; details: time 0.5-2 hrs
[14] = Therapeutic index, ratio of MHC10 for hemolytic activity in mouse erythrocytes preincubated with 10% mouse serum for 1 hr to MIC for Escherichia coli ATCC 25922 preincubated with 10% mouse serum for 1 hr; format: toxicity, cell-based; details: mouse erythrocytes, read-out: TI
[15] = system: Staphylococcus aureus; test: Antibacterial activity against Staphylococcus aureus ATCC 25923 assessed as inhibition of bacterial growth by measuring fold increase in MIC incubated for 20 hrs in presence of KCl by broth microdilution method relative to control; format: functional
[16] = system: Staphylococcus aureus; test: Synergistic antibacterial activity against Staphylococcus aureus ATCC 25923 assessed as fractional inhibitory concentration index at 0.25 to 4 times MIC incubated for 20 hrs in presence of gentamicin by checkerboard assay; format: functional
[17] = system: Pseudomonas aeruginosa; test: Antibacterial activity against Pseudomonas aeruginosa ATCC 27853 assessed as inhibition of bacterial growth incubated for 20 hrs by broth microdilution method; format: functional
[18] = system: Staphylococcus aureus; test: Synergistic antibacterial activity against Staphylococcus aureus ATCC 25923 assessed as fractional inhibitory concentration index at 0.25 to 4 times MIC incubated for 20 hrs in presence of polymyxin B by checkerboard assay; format: functional
[19] = system: Staphylococcus aureus; test: Antibacterial activity against Staphylococcus aureus ATCC 25923 assessed as inhibition of bacterial growth preincubated with 10% mouse serum for 6 hrs and measured after 20 hrs by broth microdilution method; format: functional
[20] = system: Escherichia coli; test: Antibacterial activity against Escherichia coli ATCC 25922 assessed as inhibition of bacterial growth incubated for 20 hrs by broth microdilution method; format: functional
[21] = system: Cell membrane; test: Induction of inner membrane permeabilization in Escherichia coli ML-35 ATCC 43837 at 0.5 to 4 times MIC measured every 5 mins over 135 mins by ONPG reagent based microplate reader analysis
[22] = system: Staphylococcus aureus; test: Antibacterial activity against Staphylococcus aureus ATCC 25923 assessed as inhibition of bacterial growth by measuring fold increase in MIC incubated for 20 hrs in presence of NaCl by broth microdilution method relative to control; format: functional
[23] = system: Escherichia coli; test: Antibacterial activity against Escherichia coli ATCC 25922 assessed as inhibition of bacterial growth preincubated with 10% mouse serum for 1 hr and measured after 20 hrs by broth microdilution method; format: functional
[24] = system: Cell membrane; test: Disruption of cell membrane morphology in Staphylococcus aureus assessed as partial creasing in bacterial membrane at 2 times MIC measured after 0.5 to 2 hrs by SEM analysis; format: cell membranes; details: time 0.5-2 hrs
[25] = system: Bacillus subtilis; test: Antibacterial activity against Bacillus subtilis ATCC 23857 assessed as inhibition of bacterial growth incubated for 20 hrs by broth microdilution method; format: functional
[26] = system: Staphylococcus aureus; test: Additive antibacterial activity against Staphylococcus aureus ATCC 25923 assessed as fractional inhibitory concentration index at 0.25 to 4 times MIC incubated for 20 hrs in presence of vancomycin by checkerboard assay; format: functional
[27] = system: Staphylococcus aureus; test: Antibacterial activity against Staphylococcus aureus ATCC 25923 assessed as inhibition of bacterial growth incubated for 20 hrs by broth microdilution method; format: functional
[28] = Stability in mouse serum assessed as half life at 10 mM measured upto 24 hrs by RP-HPLC analysis; format: ADME, cell-free
[29] = system: Staphylococcus aureus; test: Additive antibacterial activity against Staphylococcus aureus ATCC 25923 assessed as fractional inhibitory concentration index at 0.25 to 4 times MIC incubated for 20 hrs in presence of kanamycin by checkerboard assay; format: functional
[30] = system: Staphylococcus aureus; test: Synergistic antibacterial activity against Staphylococcus aureus ATCC 25923 assessed as fractional inhibitory concentration index at 0.25 to 4 times MIC incubated for 20 hrs in presence of rifampicin by checkerboard assay; format: functional
[31] = Cytotoxicity against HEK293T cells assessed as cell death measured after 1 hr by resazurin dye based analysis; format: toxicity, HEK-293T; details: human, HEK293T cells
[32] = system: Staphylococcus aureus; test: Antibacterial activity against Staphylococcus aureus ATCC 25923 assessed as inhibition of bacterial growth incubated for 20 hrs in presence of KCl by broth microdilution method (reference value: 16 microM); format: functional
[33] = system: Escherichia coli; test: Synergistic antibacterial activity against gentamicin resistant Escherichia coli ATCC 25922 assessed as fractional inhibitory concentration index at 0.25 to 4 times MIC incubated for 20 hrs in presence of gentamicin by checkerboard assay; format: functional
[34] = system: Staphylococcus aureus; test: Antibacterial activity against Staphylococcus aureus ATCC 25923 assessed as inhibition of bacterial growth incubated for 20 hrs in presence of NaCl by broth microdilution method (reference value: 16 microM); format: functional

N=C(N)NCCC[C@H](NC(=O)[C@H](CCCNC(=N)N)NC(=O)[C@H](CCCNC(=N)N)NC(=O)[C@@H](N)CCCNC(=N)N)C(=O)N[C@@H](CCCCN)C(=O)N[C@@H](Cc1c[nH]c2ccccc12)C(=O)N[C@@H](Cc1c[nH]c2ccccc12)C(=O)N[C@@H](Cc1c[nH]c2ccccc12)C(=O)N[C@@H](Cc1c[nH]c2ccccc12)C(N)=O
MIC [1]: 64 µM (≈ 96.9 µg/mL)
MIC ([2]; time 21 hrs): 2 µM (≈ 3.03 µg/mL)
Ratio [3]: <=2
Activity [4]: inactive
MIC ([5]; time 26 hrs): 4 µM (≈ 6.06 µg/mL)
Activity [6]: Active
fractional inhibitory concentration index (FICI) [7]: 0.5
fold change (FC) [8]: <=2
fold change (FC) [9]: <=2
MIC [10]: 32 µM (≈ 48.5 µg/mL)
fold change (FC) [11]: <=2
MHC10 [12]: > 256 µM
Activity [13]: Active
selectivity ratio [14]: 0.5
fold change (FC) [15]: <=2
fractional inhibitory concentration index (FICI) [16]: 0.375
MIC [17]: 16 µM (≈ 24.2 µg/mL)
fractional inhibitory concentration index (FICI) [18]: 0.375
MIC ([19]; time 21 hrs): 2 µM (≈ 3.03 µg/mL)
MIC [20]: 8 µM (≈ 12.1 µg/mL)
Activity [21]: Dose-Dependent Effect
fold change (FC) [22]: <=2
MIC ([23]; time 21 hrs): 2 µM (≈ 3.03 µg/mL)
Activity [24]: Active
MIC [25]: 4 µM (≈ 6.06 µg/mL)
fractional inhibitory concentration index (FICI) [26]: 0.563
MIC [27]: 8 µM (≈ 12.1 µg/mL)
half-life at 10000 µM [28]: 4.31 h
fractional inhibitory concentration index (FICI) [29]: 0.563
fractional inhibitory concentration index (FICI) [30]: 0.375
CC50 at 1 h [31]: > 128 µM

N=C(N)NCCC[C@H](NC(=O)[C@@H](N)CCCNC(=N)N)C(=O)NCCCC[C@H](NC(=O)[C@H](CCCNC(=N)N)NC(=O)[C@@H](N)CCCNC(=N)N)C(=O)N[C@@H](Cc1c[nH]c2ccccc12)C(=O)N[C@@H](Cc1c[nH]c2ccccc12)C(=O)N[C@@H](Cc1c[nH]c2ccccc12)C(=O)N[C@@H](Cc1c[nH]c2ccccc12)C(N)=O (H-RRK([Arg-Arg])WWWW-NH2)
MIC [32]: 8 µM
MIC [1]: 32 µM (≈ 48.5 µg/mL)
MIC ([2]; time 21 hrs): 1 µM (≈ 1.51 µg/mL)
Ratio [3]: <=2
Activity [4]: inactive
MIC ([5]; time 26 hrs): 2 µM (≈ 3.03 µg/mL)
fractional inhibitory concentration index (FICI) [33]: 5
Activity [6]: Active
fold change (FC) [8]: <=2
fold change (FC) [9]: <=2
MIC [10]: 64 µM (≈ 96.9 µg/mL)
fold change (FC) [11]: <=2
MHC10 [12]: > 256 µM
Activity [13]: Active
selectivity ratio [14]: 1
fold change (FC) [15]: <=2
fractional inhibitory concentration index (FICI) [16]: 0.313
MIC [17]: 8 µM (≈ 12.1 µg/mL)
fractional inhibitory concentration index (FICI) [18]: 0.313
MIC ([19]; time 21 hrs): 1 µM (≈ 1.51 µg/mL)
MIC [20]: 16 µM (≈ 24.2 µg/mL)
Activity [21]: Dose-Dependent Effect
fold change (FC) [22]: <=2
MIC ([23]; time 21 hrs): 1 µM (≈ 1.51 µg/mL)
Activity [24]: Active
MIC [25]: 4 µM (≈ 6.06 µg/mL)
MIC [34]: 16 µM
fractional inhibitory concentration index (FICI) [26]: 0.563
MIC [27]: 16 µM (≈ 24.2 µg/mL)
half-life at 10000 µM [28]: 7.38 h
fractional inhibitory concentration index (FICI) [29]: 0.563
fractional inhibitory concentration index (FICI) [30]: 0.375
CC50 at 1 h [31]: > 128 µM

POLYMYXIN B
MIC [32]: 16 µM
MIC [1]: 2 µM
MIC ([2]; time 21.0 hrs): 1 µM
MIC ([5]; time 26.0 hrs): 2 µM
fractional inhibitory concentration index (FICI) [33]: 0.312
fractional inhibitory concentration index (FICI) [7]: 0.5
fold change (FC) [8]: < 2
fold change (FC) [9]: < 2
MIC [10]: 4 µM
fold change (FC) [11]: < 2
fold change (FC) [15]: < 2
fractional inhibitory concentration index (FICI) [16]: 0.313
MIC [17]: 4 µM
MIC ([19]; time 21.0 hrs): 1 µM
MIC [20]: 4 µM
fold change (FC) [22]: 4
MIC ([23]; time 21.0 hrs): 1 µM
MIC [25]: 4 µM
MIC [34]: 64 µM
fractional inhibitory concentration index (FICI) [26]: 0.563
MIC [27]: 16 µM
fractional inhibitory concentration index (FICI) [29]: 0.563
